PubChem BioAssay AID1963429 (Molecular Pharmacology Branch, DTP, NCI, 2024)
Several values for one entry are separate records, joined by “and”; a condition that tells them apart may be missing. Identical values can stand only once.

Tested on: 126254-015-R-J1-PDC complex spheroid growth, % test/control
Test: Anticancer human tumor 126254-015-R-J1-PDC patient-derived soft tissue sarcoma cell line growth inhibition [Asc]
Conditions: for viability, T/C: stronger effect = lower value
Outline: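 Concentration series start at each agent's clinical Cmax, or at 10 microM when none is established, and drop in half-log steps; agents are applied alone or together to complex spheroids built with HUVEC and hMSC.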
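Note: spheroids exposed to compound for seven days.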
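Throughout, for viability, T/C: 100% = DMSO vehicle control wells.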

`O=C(c1cc(Cc2n[nH]c(=O)c3ccccc23)ccc1F)N1CCN(C(=O)C2CC2)CC1` + CCN1C(C(=O)NC23CCC(C(=O)O)(CC2)CC3)C(c2cccc(Cl)c2F)C2(C(=O)Nc3cc(Cl)ccc32)C12CCCCC2 was tested, and the IC50 (curve of first compound, second compound 0.03 µM) was > 10000 nM, the IC50 (curve of first compound, second compound 0.0949 µM) was > 10000 nM and the IC50 (curve of first compound, second compound 0.3 µM) was > 10000 nM. The IC50 (curve of first compound, second compound 0.949 µM) was > 10000 nM, the IC50 (curve of first compound, second compound 3 µM) was > 10000 nM and the viability, T/C (second compound 0.03 µM, first compound 0.0316 µM) was 95.7%. The viability, T/C (second compound 0.03 µM, first compound 0.1 µM) was 87.7%, the viability, T/C (second compound 0.03 µM, first compound 0.316 µM) was 90.3% and the viability, T/C (second compound 0.03 µM, first compound 1 µM) was 74.5%. It also gave a viability, T/C (second compound 0.03 µM, first compound 3.16 µM) of 84.1%, a viability, T/C (second compound 0.03 µM, first compound 10 µM) of 60% and a viability, T/C (second compound 0.0949 µM, first compound 0.0316 µM) of 95.5%. It also gave a viability, T/C (second compound 0.0949 µM, first compound 0.1 µM) of 100%, a viability, T/C (second compound 0.0949 µM, first compound 0.316 µM) of 87.7% and a viability, T/C (second compound 0.0949 µM, first compound 1 µM) of 97.4%. For the same compound, the viability, T/C (second compound 0.0949 µM, first compound 3.16 µM) was 83.2%, the viability, T/C (second compound 0.0949 µM, first compound 10 µM) was 59.2% and the viability, T/C (second compound 0.3 µM, first compound 0.0316 µM) was 98.4%. For the same compound, the viability, T/C (second compound 0.3 µM, first compound 0.1 µM) was 90.9%, the viability, T/C (second compound 0.3 µM, first compound 0.316 µM) was 92.2% and the viability, T/C (second compound 0.3 µM, first compound 1 µM) was 83.6%. It also gave a viability, T/C (second compound 0.3 µM, first compound 3.16 µM) of 77.2%, a viability, T/C (second compound 0.3 µM, first compound 10 µM) of 59% and a viability, T/C (second compound 0.949 µM, first compound 0.0316 µM) of 90%. The viability, T/C (second compound 0.949 µM, first compound 0.1 µM) was 97%, the viability, T/C (second compound 0.949 µM, first compound 0.316 µM) was 93.6% and the viability, T/C (second compound 0.949 µM, first compound 1 µM) was 83.9%. It also gave a viability, T/C (second compound 0.949 µM, first compound 3.16 µM) of 73.8%, a viability, T/C (second compound 0.949 µM, first compound 10 µM) of 59.3% and a viability, T/C (second compound 3 µM, first compound 0.0316 µM) of 88.8%. It also gave a viability, T/C (second compound 3 µM, first compound 0.1 µM) of 90.5%, a viability, T/C (second compound 3 µM, first compound 0.316 µM) of 93.7% and a viability, T/C (second compound 3 µM, first compound 1 µM) of 85.4%. The viability, T/C (second compound 3 µM, first compound 3.16 µM) was 73.1% and the viability, T/C (second compound 3 µM, first compound 10 µM) was 70.5%.
For `C=CC(=O)N1CCN(c2nc(=O)n(-c3c(C)ccnc3C(C)C)c3nc(-c4c(O)cccc4F)c(F)cc23)C(C)C1` (configuration not stated), the viability, T/C (compound 0.0316 µM) was 93.4% and 99.9% and 105%, the viability, T/C (compound 0.1 µM) was 106% and 97.6% and 110% and the viability, T/C (compound 0.316 µM) was 107% and 115% and 109%. The viability, T/C (compound 1 µM) was 102% and 111% and 112%, the viability, T/C (compound 3.16 µM) was 120% and 116% and 110% and the viability, T/C (compound 10 µM) was 88.8% and 91% and 102%. For the same compound, the IC50 (curve of compound) was > 10000 nM.
Compound `C=C(F)C(=O)N1CCN(c2nc(OCC3CCCN3C)nc3c2CCN(c2cccc4cccc(Cl)c24)C3)CC1CC#N` (configuration not stated) + CNC(C)C(=O)NC1CN(S(=O)(=O)c2cccc(S(=O)(=O)N3CCC4CCC(C(=O)NC(c5ccccc5)c5ccccc5)N4C(=O)C(NC(=O)C(C)NC)C3)c2)CCC2CCC(C(=O)NC(c3ccccc3)c3ccccc3)N2C1=O has an IC50 (curve of first compound, second compound 0.01 µM) of 2550 nM, an IC50 (curve of first compound, second compound 0.0316 µM) of 2200 nM and an IC50 (curve of first compound, second compound 0.1 µM) of 1340 nM. The IC50 (curve of first compound, second compound 0.316 µM) was 1210 nM, the IC50 (curve of first compound, second compound 1 µM) was 505 nM and the viability, T/C (second compound 0.01 µM, first compound 0.0316 µM) was 80%. It also gave a viability, T/C (second compound 0.01 µM, first compound 0.1 µM) of 89.3%, a viability, T/C (second compound 0.01 µM, first compound 0.316 µM) of 80.1% and a viability, T/C (second compound 0.01 µM, first compound 1 µM) of 74.8%. For the same compound, the viability, T/C (second compound 0.01 µM, first compound 3.16 µM) was 44.3%, the viability, T/C (second compound 0.01 µM, first compound 10 µM) was 0.18% and the viability, T/C (second compound 0.0316 µM, first compound 0.0316 µM) was 71.4%. For the same compound, the viability, T/C (second compound 0.0316 µM, first compound 0.1 µM) was 71%, the viability, T/C (second compound 0.0316 µM, first compound 0.316 µM) was 71.4% and the viability, T/C (second compound 0.0316 µM, first compound 1 µM) was 63.9%. The viability, T/C (second compound 0.0316 µM, first compound 3.16 µM) was 43.5%, the viability, T/C (second compound 0.0316 µM, first compound 10 µM) was 0.14% and the viability, T/C (second compound 0.1 µM, first compound 0.0316 µM) was 61%. For the same compound, the viability, T/C (second compound 0.1 µM, first compound 0.1 µM) was 67.3%, the viability, T/C (second compound 0.1 µM, first compound 0.316 µM) was 64.6% and the viability, T/C (second compound 0.1 µM, first compound 1 µM) was 53.2%. The viability, T/C (second compound 0.1 µM, first compound 3.16 µM) was 35.2%, the viability, T/C (second compound 0.1 µM, first compound 10 µM) was 0.14% and the viability, T/C (second compound 0.316 µM, first compound 0.0316 µM) was 65.4%. The viability, T/C (second compound 0.316 µM, first compound 0.1 µM) was 66.1%, the viability, T/C (second compound 0.316 µM, first compound 0.316 µM) was 64% and the viability, T/C (second compound 0.316 µM, first compound 1 µM) was 45%. The viability, T/C (second compound 0.316 µM, first compound 3.16 µM) was 40.7%, the viability, T/C (second compound 0.316 µM, first compound 10 µM) was 0.15% and the viability, T/C (second compound 1 µM, first compound 0.0316 µM) was 58.7%. The viability, T/C (second compound 1 µM, first compound 0.1 µM) was 59.2%, the viability, T/C (second compound 1 µM, first compound 0.316 µM) was 57.5% and the viability, T/C (second compound 1 µM, first compound 1 µM) was 40.4%. The viability, T/C (second compound 1 µM, first compound 3.16 µM) was 27.4% and the viability, T/C (second compound 1 µM, first compound 10 µM) was 0.2%.
